Laboratory results: patent US9499550B2 (BRISTOL-MYERS SQUIBB COMPANY, priority 2012, dated 2016)
Read-outs that look alike come from different tables or passages of the source.

What was measured:
[1] = system: HCV genotype 1b (Con1) replicon in HUH-7 cells; test: HCV replicon luciferase reporter assay, genotype 1b; assay type: cell-based; conditions: Hepatitis C virus, Huh-7, 72 h, 3 days incubation, read-out: LE_1b (EC50, range)
Method in brief: (§1)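 Replicon inhibition for both genotypes was measured as Renilla luciferase signal (EnduRen, 7.5 μM final, 2 h) after 3-day, 37° C exposure of replicon-bearing HUH-7 cells in 4% FCS DMEM, 0.5% DMSO. The 1b construct carries S1179I; the 1a H77 construct carries P1496L and S2204I. Twenty-point, 3-fold dilutions were fitted four-parametrically for EC50, and CC50 was taken from multiplexed Cell Titer-Blue.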

[2] = system: HCV genotype 1a (H77 strain) replicon in HUH-7 cells; test: HCV replicon luciferase reporter assay, genotype 1a; assay type: cell-based; conditions: Hepatitis C virus, Huh-7, 72 h, 3 days incubation, read-out: LE_1a (EC50, range)
Method in brief: as §1

[3] = HCV genotype 1b replicon luciferase assay, range class
[4] = HCV genotype 1a replicon luciferase assay, range class
[5] = HCV genotype 1b replicon luciferase
[6] = HCV genotype 1a replicon luciferase

Row | Structure (SMILES) | EC50 [1, 3] [nM] | EC50 [2, 4] [nM] | EC50 [1, 5] [nM] | EC50 [2, 6] [nM]
1 | COCCOc1cnc(O[C@@H]2C[C@H]3C(=O)N[C@]4(C(=O)NS(=O)(=O)C5(C)CC5)C[C@H]4/C=C\CC[C@@H](C)C[C@@H](C)[C@H](NC(=O)OC4C[C@@H]5C[C@H]5C4)C(=O)N3C2)c2ccccc12 [Compound 1039, (1S,5S)-bicyclo[3.1.0]hexan-3-yl((2R,6S,7R,9R,13aS,14aR,16aS,Z)-2-((4-(2-methoxyethoxyl)isoquinolin-1-yl)oxy)-7,9-dimethyl-14a-(((1-methylcyclopropyl)sulfonyl)carbamoyl)-5,16-dioxo-1,2,3,5,6,7,8,9,10,11,13a,14,14a,15,16,16a-hexadecahydrocyclopropa[e]pyrrolo[1,2-a][1,4]diazacyclopentadecin-6-yl)carbamate] | < 5.46 | < 5.46 | – | –
2 | COc1ccc2c(O[C@@H]3C[C@H]4C(=O)N[C@]5(C(=O)NS(=O)(=O)C6(C)CC6)C[C@H]5/C=C\CC[C@@H](C)C[C@@H](C)[C@H](NC(=O)OC(C)(C)C)C(=O)N4C3)cc(-c3ccc(OC(C)C)cc3)nc2c1 [Compound 4242, tert-butyl ((2R,6S,7R,9R,13aS,14aR,16aS,Z)-2-((2-(4-isopropoxyphenyl)-7-methoxyquinolin-4-yl)oxy)-7,9-dimethyl-14a-(((1-methylcyclopropyl)sulfonyl)carbamoyl)-5,16-dioxo-1,2,3,5,6,7,8,9,10,11,13a,14,14a,15,16,16a-hexadecahydrocyclopropa[e]pyrrolo[1,2-a][1,4]diazacyclopentadecin-6-yl)carbamate] | – | – | 0.51 to 1 | 0.51 to 1
3 | CC(C)Oc1ccc2c(O[C@@H]3C[C@H]4C(=O)N[C@]5(C(=O)NS(=O)(=O)C6CC6)C[C@H]5/C=C\CC[C@@H](C)C[C@@H](C)[C@H](NC(=O)OC(C)(C)C(F)(F)F)C(=O)N4C3)nccc2c1 [Compound 5148, 1,1,1-trifluoro-2-methylpropan-2-yl((2R,6S,7R,9R,13aS,14aR,16aS,Z)-14a-((cyclopropylsulfonyl)carbamoyl)-2-((6-isopropoxyisoquinolin-1-yl)oxy)-7,9-dimethyl-5,16-dioxo-1,2,3,5,6,7,8,9,10,11,13a,14,14a,15,16,16a-hexadecahydrocyclopropa[e]pyrrolo[1,2-a][1,4]diazacyclopentadecin-6-yl)carbamate] | – | – | < 5.46 | < 5.46
4 | CC(C)Oc1ccc2c(O[C@@H]3C[C@H]4C(=O)N[C@]5(C(=O)NS(=O)(=O)C6(C)CC6)C[C@H]5/C=C\CC[C@H](C)C[C@@H](C)[C@H](NC(=O)OC(C)(C)C(F)(F)F)C(=O)N4C3)nccc2c1 [Compound 5158, 1,1,1-trifluoro-2-methylpropan-2-yl((2R,6S,7R,9S,13aS,14aR,16aS,Z)-2-((6-isopropoxyisoquinolin-1-yl)oxy)-7,9-dimethyl-14a-(((1-methylcyclopropyl)sulfonyl)carbamoyl)-5,16-dioxo-1,2,3,5,6,7,8,9,10,11,13a,14,14a,15,16,16a-hexadecahydrocyclopropa[e]pyrrolo[1,2-a][1,4]diazacyclopentadecin-6-yl)carbamate] | – | – | < 5.46 | 4.82 to 103
5 | COc1cnc(O[C@@H]2C[C@H]3C(=O)N[C@]4(C(=O)NS(=O)(=O)C5(CF)CC5)C[C@H]4/C=C\CC[C@@H](C)C[C@@H](C)[C@H](NC(=O)OC4(C)CCOCC4)C(=O)N3C2)c2ccccc12 [Compound 1052, 4-methyltetrahydro-2H-pyran-4-yl((2R,6S,7R,9R,13aS,14aR,16aS,Z)-14a-(((1-(fluoromethyl)cyclopropyl)sulfonyl)carbamoyl)-2-((4-methoxyisoquinolin-1-yl)oxy)-7,9-dimethyl-5,16-dioxo-1,2,3,5,6,7,8,9,10,11,13a,14,14a,15,16,16a-hexadecahydrocyclopropa[e]pyrrolo[1,2-a][1,4]diazacyclopentadecin-6-yl)carbamate] | < 5.46 | 4.82 to 103 | – | –
